Here are results for 2 substances from publication PMC2364994, “Complexes With Biologically Active Ligands. Part 1. Synthesis of Coordination Compounds of Diazoxide With Transition- and Main-Group Cations” (Metal-Based Drugs, 1996).

Test [1] deals with T1, Bovine CA II (Bos taurus, UniProt P00921).
T1 construct: gene CA2; commercial enzyme (Sigma Chemical Co.); isozyme described as erythrocyte CA
Description: Maren's micromethod, CO2 hydration. The class given is biochemical. Conditions: 0 °C, veronal buffer; E-I technique; unit shows as (M) in the extracted table, text says micromolar range.

The target of test [2] is T2, human CA I (Homo sapiens, UniProt P00915).
T2 construct: gene CA1; commercial enzyme (Sigma Chemical Co.); isozyme described as erythrocyte CA
T2 sequence (P00915 2-261): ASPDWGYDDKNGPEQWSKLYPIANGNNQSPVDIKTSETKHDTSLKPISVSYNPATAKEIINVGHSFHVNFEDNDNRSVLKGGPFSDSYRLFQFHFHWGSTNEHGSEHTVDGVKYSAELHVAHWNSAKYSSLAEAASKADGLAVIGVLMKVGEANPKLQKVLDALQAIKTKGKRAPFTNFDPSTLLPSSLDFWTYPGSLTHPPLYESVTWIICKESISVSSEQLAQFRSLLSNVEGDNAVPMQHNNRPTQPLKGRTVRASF
Description: Maren's micromethod, CO2 hydration. The class given is biochemical. Conditions: 0 °C, veronal buffer; E-I technique; unit shows as (M) in the extracted table, text says micromolar range.

T1 sequence (P00921 2-260): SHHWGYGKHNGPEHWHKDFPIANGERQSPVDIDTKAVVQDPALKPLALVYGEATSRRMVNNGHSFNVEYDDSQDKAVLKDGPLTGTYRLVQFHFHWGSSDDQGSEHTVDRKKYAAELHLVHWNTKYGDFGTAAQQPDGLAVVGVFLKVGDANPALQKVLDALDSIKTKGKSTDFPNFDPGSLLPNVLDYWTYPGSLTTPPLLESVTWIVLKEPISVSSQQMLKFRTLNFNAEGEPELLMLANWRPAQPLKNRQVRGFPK

One may read the IC50 as the concentration at which inhibition is half-maximal. A high value points to weaker potency. In the case of [VO(DZO)(OH)].HO [compound 17], the figures for the IC50 in test [1] and in test [2] were 0.000125 M and 0.000105 M, respectively.

In the case of [PDZO)(OH)a].2HO [compound 14], the IC50 in test [1] turned out to be 6e-05 M; in test [2], 7.2e-05 M.
